Data as given in the NIST ThermoML archive (doi:10.1016/j.jct.2011.10.023).
Numbers after ± are expanded uncertainties.

Conditions: Liquid, Vibrating tube method

CCCCO [butan-1-ol]
mass density [kg/m3]
Conditions | 278.15 K | 288.15 K | 298.15 K | 308.15 K | 318.15 K | 328.15 K | 338.15 K | 348.15 K | 358.15 K
100 kPa | 820.9 ± 2.4 | 813.5 ± 2.4 | 805.8 ± 2.4 | 798 ± 2.4 | 790.3 ± 2.4 | 782.3 ± 2.4 | 774 ± 2.4 | 765.6 ± 2.4 | 756.6 ± 2.4
1000 kPa | 821.6 ± 2.4 | 814.1 ± 2.4 | 806.6 ± 2.4 | 798.8 ± 2.4 | 791.1 ± 2.4 | 783.1 ± 2.4 | 774.9 ± 2.4 | 766.3 ± 2.4 | 757.7 ± 2.4
5000 kPa | 824.4 ± 2.4 | 817 ± 2.4 | 809.6 ± 2.4 | 802 ± 2.4 | 794.5 ± 2.4 | 786.7 ± 2.4 | 778.7 ± 2.4 | 770.5 ± 2.4 | 761.7 ± 2.4
10000 kPa | 827.7 ± 2.4 | 820.5 ± 2.4 | 813.3 ± 2.4 | 805.9 ± 2.4 | 798.5 ± 2.4 | 790.9 ± 2.4 | 783.2 ± 2.4 | 775.3 ± 2.4 | 767 ± 2.4
15000 kPa | 830.9 ± 2.4 | 823.9 ± 2.4 | 816.8 ± 2.4 | 809.5 ± 2.4 | 802.4 ± 2.4 | 795 ± 2.4 | 787.4 ± 2.4 | 779.8 ± 2.4 | 771.7 ± 2.4
20000 kPa | 834 ± 2.4 | 827.2 ± 2.4 | 820.2 ± 2.4 | 813 ± 2.4 | 805.6 ± 2.4 | 798.8 ± 2.4 | 791.4 ± 2.4 | 784 ± 2.4 | 776.2 ± 2.4
25000 kPa | 837 ± 2.4 | 830.3 ± 2.4 | 823.5 ± 2.4 | 816.4 ± 2.4 | 809.5 ± 2.4 | 802.4 ± 2.4 | 795.3 ± 2.4 | 788 ± 2.4 | 780.4 ± 2.4
30000 kPa | 839.9 ± 2.4 | 833.2 ± 2.4 | 826.6 ± 2.4 | 819.7 ± 2.4 | 812.9 ± 2.4 | 806 ± 2.4 | 799 ± 2.4 | 791.8 ± 2.4 | 784.4 ± 2.4
35000 kPa | 842.7 ± 2.4 | 836.2 ± 2.4 | 829.6 ± 2.4 | 822.8 ± 2.4 | 816.1 ± 2.4 | 809.4 ± 2.4 | 802.5 ± 2.4 | 795.6 ± 2.4 | 788.3 ± 2.4
40000 kPa | 845.4 ± 2.4 | 839 ± 2.4 | 832.6 ± 2.4 | 825.9 ± 2.4 | 819.3 ± 2.4 | 812.7 ± 2.4 | 805.9 ± 2.4 | 799.1 ± 2.4 | 792 ± 2.4
45000 kPa | 848.1 ± 2.4 | 841.7 ± 2.4 | 835.4 ± 2.4 | 828.8 ± 2.4 | 822.4 ± 2.4 | 815.8 ± 2.4 | 809.2 ± 2.4 | 802.5 ± 2.4 | 795.5 ± 2.4
50000 kPa | 850.7 ± 2.4 | 844.4 ± 2.4 | 838.2 ± 2.4 | 831.7 ± 2.4 | 825.3 ± 2.4 | 818.9 ± 2.4 | 812.4 ± 2.4 | 805.8 ± 2.4 | 799 ± 2.4
55000 kPa | 853.2 ± 2.4 | 846.8 ± 2.4 | 840.9 ± 2.4 | 834.5 ± 2.4 | 828.2 ± 2.4 | 821.8 ± 2.4 | 815.4 ± 2.4 | 809 ± 2.4 | 802.3 ± 2.4
60000 kPa | 855.6 ± 2.4 | 849.4 ± 2.4 | 843.3 ± 2.4 | 837 ± 2.4 | 830.9 ± 2.4 | 824.6 ± 2.4 | 818.4 ± 2.4 | 811.9 ± 2.5 | 805.3 ± 2.5

CCCCCCO [hexan-1-ol]
mass density [kg/m3]
Conditions | 278.15 K | 288.15 K | 298.15 K | 308.15 K | 318.15 K | 328.15 K | 338.15 K | 348.15 K | 358.15 K
100 kPa | 828.9 ± 2.4 | 822.1 ± 2.4 | 814.9 ± 2.4 | 807.8 ± 2.4 | 800.5 ± 2.4 | 793 ± 2.4 | 785.4 ± 2.4 | 777.6 ± 2.4 | 769.4 ± 2.4
1000 kPa | 829.5 ± 2.4 | 822.7 ± 2.4 | 815.6 ± 2.4 | 808.4 ± 2.4 | 801.2 ± 2.4 | 793.7 ± 2.4 | 786.2 ± 2.4 | 778.4 ± 2.4 | 770 ± 2.4
5000 kPa | 832 ± 2.4 | 825.3 ± 2.4 | 818.4 ± 2.4 | 811.4 ± 2.4 | 804.3 ± 2.4 | 797 ± 2.4 | 789.6 ± 2.4 | 782 ± 2.4 | 774.2 ± 2.4
10000 kPa | 835 ± 2.4 | 828.5 ± 2.4 | 821.7 ± 2.4 | 814.8 ± 2.4 | 807.9 ± 2.4 | 800.8 ± 2.4 | 793.6 ± 2.4 | 786.2 ± 2.4 | 778.6 ± 2.4
15000 kPa | 838 ± 2.4 | 831.6 ± 2.4 | 824.9 ± 2.4 | 818.2 ± 2.4 | 811.4 ± 2.4 | 804.4 ± 2.4 | 797.4 ± 2.4 | 790.2 ± 2.4 | 782.8 ± 2.4
20000 kPa | 840.8 ± 2.4 | 834.6 ± 2.4 | 828 ± 2.4 | 821.4 ± 2.4 | 814.7 ± 2.4 | 807.9 ± 2.4 | 801 ± 2.4 | 794.1 ± 2.4 | 786.9 ± 2.4
25000 kPa | 843.6 ± 2.4 | 837.4 ± 2.4 | 830.9 ± 2.4 | 824.5 ± 2.4 | 817.9 ± 2.4 | 811.2 ± 2.4 | 804.5 ± 2.4 | 797.6 ± 2.4 | 790.7 ± 2.4
30000 kPa | 846.3 ± 2.4 | 840.2 ± 2.4 | 833.8 ± 2.4 | 827.5 ± 2.4 | 821 ± 2.4 | 814.4 ± 2.4 | 807.9 ± 2.4 | 801.2 ± 2.4 | 794.3 ± 2.4
35000 kPa | 848.9 ± 2.4 | 842.9 ± 2.4 | 836.6 ± 2.4 | 830.3 ± 2.4 | 824 ± 2.4 | 817.6 ± 2.4 | 811.1 ± 2.4 | 804.6 ± 2.4 | 797.9 ± 2.4
40000 kPa | 851.4 ± 2.4 | 845.5 ± 2.4 | 839.4 ± 2.4 | 833.2 ± 2.4 | 826.9 ± 2.4 | 820.6 ± 2.4 | 814.2 ± 2.4 | 807.8 ± 2.4 | 801.3 ± 2.5
45000 kPa | 853.9 ± 2.4 | 848 ± 2.4 | 842 ± 2.4 | 835.9 ± 2.4 | 829.7 ± 2.4 | 823.5 ± 2.5 | 817.3 ± 2.5 | 811 ± 2.5 | 804.6 ± 2.5
50000 kPa | 856.3 ± 2.4 | 850.5 ± 2.4 | 844.6 ± 2.5 | 838.5 ± 2.5 | 832.4 ± 2.5 | 826.4 ± 2.5 | 820.2 ± 2.5 | 814 ± 2.5 | 807.7 ± 2.5
55000 kPa | 858.7 ± 2.4 | 853 ± 2.5 | 847.1 ± 2.5 | 841.1 ± 2.5 | 835.1 ± 2.5 | 829.1 ± 2.5 | 823.1 ± 2.5 | 817 ± 2.5 | 810.8 ± 2.5
60000 kPa | 860.9 ± 2.5 | 855.4 ± 2.5 | 849.6 ± 2.5 | 843.5 ± 2.5 | 837.7 ± 2.5 | 831.6 ± 2.5 | 825.7 ± 2.5 | 819.7 ± 2.5 | 813.5 ± 2.5

CCCCCCCCCCO [decan-1-ol]
mass density [kg/m3]
Conditions | 288.15 K | 298.15 K | 308.15 K | 318.15 K | 328.15 K | 338.15 K | 348.15 K | 358.15 K
100 kPa | 832.3 ± 2.4 | 825.5 ± 2.4 | 818.7 ± 2.4 | 811.9 ± 2.4 | 805 ± 2.4 | 798 ± 2.4 | 790.9 ± 2.4 | 783.6 ± 2.4
1000 kPa | 832.8 ± 2.4 | 826 ± 2.4 | 819.3 ± 2.4 | 812.5 ± 2.4 | 805.7 ± 2.4 | 798.7 ± 2.4 | 791.6 ± 2.4 | 784.3 ± 2.4
5000 kPa | 835.2 ± 2.4 | 828.5 ± 2.4 | 821.9 ± 2.4 | 815.3 ± 2.4 | 808.5 ± 2.4 | 801.7 ± 2.4 | 794.8 ± 2.4 | 787.6 ± 2.4
10000 kPa | 838 ± 2.4 | 831.5 ± 2.4 | 825 ± 2.4 | 818.5 ± 2.4 | 811.9 ± 2.4 | 805.2 ± 2.4 | 798.5 ± 2.4 | 791.6 ± 2.4
15000 kPa | 840.8 ± 2.4 | 834.4 ± 2.4 | 828 ± 2.4 | 821.7 ± 2.4 | 815.2 ± 2.4 | 808.7 ± 2.4 | 802 ± 2.4 | 795.3 ± 2.4
20000 kPa | 843.5 ± 2.4 | 837.2 ± 2.4 | 830.9 ± 2.4 | 824.7 ± 2.4 | 818.3 ± 2.4 | 812 ± 2.4 | 805.5 ± 2.4 | 798.9 ± 2.4
25000 kPa | 846.1 ± 2.4 | 839.8 ± 2.4 | 833.7 ± 2.4 | 827.6 ± 2.4 | 821.4 ± 2.4 | 815.1 ± 2.4 | 808.8 ± 2.4 | 802.3 ± 2.4
30000 kPa | 848.6 ± 2.4 | 842.5 ± 2.4 | 836.4 ± 2.4 | 830.4 ± 2.4 | 824.3 ± 2.4 | 818.1 ± 2.4 | 811.9 ± 2.4 | 805.6 ± 2.4
35000 kPa | 851.1 ± 2.4 | 845.1 ± 2.4 | 839.1 ± 2.4 | 833.2 ± 2.4 | 827.1 ± 2.4 | 821.1 ± 2.4 | 815 ± 2.4 | 808.8 ± 2.4
40000 kPa | 853.5 ± 2.4 | 847.6 ± 2.4 | 841.7 ± 2.4 | 835.8 ± 2.4 | 829.9 ± 2.4 | 824 ± 2.4 | 817.9 ± 2.4 | 811.9 ± 2.4
45000 kPa | 855.9 ± 2.4 | 850 ± 2.4 | 844.2 ± 2.4 | 838.5 ± 2.4 | 832.6 ± 2.4 | 826.7 ± 2.5 | 820.8 ± 2.5 | 814.8 ± 2.5
50000 kPa | 858.2 ± 2.4 | 852.4 ± 2.4 | 846.6 ± 2.4 | 841 ± 2.5 | 835.2 ± 2.5 | 829.4 ± 2.5 | 823.6 ± 2.5 | 817.7 ± 2.5
55000 kPa | 860.4 ± 2.4 | 854.7 ± 2.5 | 849 ± 2.5 | 843.4 ± 2.5 | 837.7 ± 2.5 | 832.1 ± 2.5 | 826.4 ± 2.5 | 820.5 ± 2.5
60000 kPa | 862.7 ± 2.5 | 856.8 ± 2.5 | 851.2 ± 2.5 | 845.7 ± 2.5 | 840.2 ± 2.5 | 834.5 ± 2.5 | 829 ± 2.5 | 822.9 ± 2.5
